This is an account of results in US11098041B2 (Merck Patent GmbH, priority 2014, dated 2021).

pIC50: −log10 of the molar value.

One assay concerns the target full-length human BTK (Homo sapiens (Human), UniProt Q06187). Put plainly: Assay A: microfluidic off-chip mobility shift assay against BTK enzyme. Format: biochemical.
The target in assay [1] is BTK C481S (His-TEV-hsBTK(328-659)(C481S)) (Homo sapiens (Human), UniProt Q06187, C481S). Put plainly: Assay B: microfluidic off-chip mobility shift assay against BTK C481S enzyme. Format: biochemical. Conditions: BTK C481S mutant. An outline of the steps: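 Substrate-to-phosphopeptide conversion quantified by microfluidic mobility shift with laser-induced fluorescence; IC50 and efficacy from log[inhibitor] vs. % activity.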
Sequence of BTK C481S (His-TEV-hsBTK(328-659)(C481S)) (Q06187 328-659 C481S): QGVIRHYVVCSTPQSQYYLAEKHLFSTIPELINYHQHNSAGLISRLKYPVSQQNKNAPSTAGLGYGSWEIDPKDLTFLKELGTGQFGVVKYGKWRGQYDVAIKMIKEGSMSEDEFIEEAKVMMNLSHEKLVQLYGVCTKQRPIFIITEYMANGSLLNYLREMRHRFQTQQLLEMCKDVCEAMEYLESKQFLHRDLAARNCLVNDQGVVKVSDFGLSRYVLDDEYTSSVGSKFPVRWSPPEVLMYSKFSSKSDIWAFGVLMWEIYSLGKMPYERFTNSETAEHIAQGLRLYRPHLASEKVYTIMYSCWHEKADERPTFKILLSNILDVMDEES

A further assay deals with LCK (Homo sapiens (Human), UniProt P06239). Put plainly: Assay E: LCK biochemical assay (HotSpot Kinase Assay). Conditions: read-out: LCK % inhibition at 1 uM test concentration (Assay E). On the procedure: Assay E: LCK Biochemical Assay
Sequence of LCK (P06239 whole entry): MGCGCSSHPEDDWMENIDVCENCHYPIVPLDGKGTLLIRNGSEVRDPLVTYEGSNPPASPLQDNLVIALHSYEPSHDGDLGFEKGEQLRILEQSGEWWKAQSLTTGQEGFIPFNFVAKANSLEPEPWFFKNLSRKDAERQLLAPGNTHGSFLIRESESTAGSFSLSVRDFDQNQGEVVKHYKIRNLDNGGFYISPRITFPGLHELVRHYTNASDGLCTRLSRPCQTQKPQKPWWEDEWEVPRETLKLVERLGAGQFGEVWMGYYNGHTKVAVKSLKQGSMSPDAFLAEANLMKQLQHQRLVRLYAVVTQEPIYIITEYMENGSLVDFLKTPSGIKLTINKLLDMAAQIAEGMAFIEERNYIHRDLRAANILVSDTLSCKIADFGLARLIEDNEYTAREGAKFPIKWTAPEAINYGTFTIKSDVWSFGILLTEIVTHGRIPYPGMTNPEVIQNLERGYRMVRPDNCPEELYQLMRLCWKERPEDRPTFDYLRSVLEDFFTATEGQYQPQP
The standard protocol below describes the standard HotSpot Kinase Assay run by the Reaction Biology Corporation as a service.
The substrate (poly(EY) (Glu:Tyr (4:1)) and the cofactors were prepared in fresh Reaction Buffer (20 mM Hepes (pH 7.5), 10 mM MgCl2, 2 mM MnCl2, 1 mM EGTA, 0.02% Brij35, 0.02 mg/ml BSA, 0.1 mM Na3VO4, 2 mM DTT, 2% DMSO). To the substrate solution was then added the enzyme (LCK; recombinant human full-length (Genbank Accession #NP_005347); C-terminal His-tagged, expressed in insect cells), and the resulting solution was then gently mixed. The test compounds were dissolved in DMSO and then delivered into the kinase reaction mixture using acoustic liquid handling technology (Echo550; nanoliter range). The reaction mixture was incubated for 20 min at RT and then treated with ^33P-ATP to initiate the reaction. After 2 hours of incubation at RT, kinase activity was detected using Reaction Biology Corporation's proprietary P81 filter-binding method.

Assay [2] has as its system anti-IgM-induced expression of CD69 on CD19 positive cells (B cells) in human PBMCs. Put plainly: Assay C: PBMC IC50 assay (anti-IgM-induced CD69 expression). Format: cell-based. Conditions: anti-IgM stimulation. An outline of the steps:
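Freshly isolated human PBMCs (2.5×10^5/well) pretreated 1 h with compound, then stimulated overnight (~16-18 h) with goat F(ab′)2 anti-human IgM. CD69 on CD19+ B cells measured by flow cytometry; IC50 from percentage CD69+ B cells versus concentration.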

Sequence of full-length human BTK (Q06187 whole entry): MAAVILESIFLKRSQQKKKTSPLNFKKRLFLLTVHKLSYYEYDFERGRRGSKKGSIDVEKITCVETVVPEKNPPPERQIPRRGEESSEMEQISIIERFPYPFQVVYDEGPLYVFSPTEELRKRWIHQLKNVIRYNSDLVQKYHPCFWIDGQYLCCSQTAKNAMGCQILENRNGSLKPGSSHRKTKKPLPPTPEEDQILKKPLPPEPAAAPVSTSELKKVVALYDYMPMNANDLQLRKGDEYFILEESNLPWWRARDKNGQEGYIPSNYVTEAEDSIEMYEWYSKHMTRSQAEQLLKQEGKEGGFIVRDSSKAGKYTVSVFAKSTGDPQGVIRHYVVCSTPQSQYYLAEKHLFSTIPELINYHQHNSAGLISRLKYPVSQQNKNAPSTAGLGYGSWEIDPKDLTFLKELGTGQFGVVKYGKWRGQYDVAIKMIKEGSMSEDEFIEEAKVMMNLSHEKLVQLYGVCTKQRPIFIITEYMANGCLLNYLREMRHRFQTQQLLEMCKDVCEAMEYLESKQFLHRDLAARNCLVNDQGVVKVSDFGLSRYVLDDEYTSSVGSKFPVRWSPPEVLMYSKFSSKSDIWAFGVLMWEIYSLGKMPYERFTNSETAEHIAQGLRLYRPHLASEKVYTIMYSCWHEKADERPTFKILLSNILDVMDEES

Take `Cn1cc(-c2nc3c(-c4ccc(CN5Cc6cc(C(C)(C)C)sc6C5=O)c(F)c4)ccnc3[nH]2)cn1` [Example 92, 2-tert-Butyl-5-([2-fluoro-4-[2-(1-methyl-1H-pyrazol-4-yl)-3H-imidazo[4,5-b]pyridin-7-yl]phenyl]methyl)-4H,5H,6H-thieno[2,3-c]pyrrol-6-one]: the pIC50 on full-length human BTK was > 7.00; in assay [1], > 7.00; in assay [2], 6.00 to 7.00. In addition, at LCK, the inhibition at 1 µM came out at 29%.
As to `Cn1cc(-c2nc3c(-c4ccc(CNC(=O)c5ccc(C(C)(C)C)cc5)c(C(F)(F)F)c4)ccnc3[nH]2)cn1` [Example 108, 4-tert-Butyl-N-{4-[2-(1-methyl-1H-pyrazol-4-yl)-3H-imidazo[4,5-b]pyridin-7-yl]-2-trifluoromethyl-benzyl}-benzamide], the pIC50 (on full-length human BTK; in assay [1]; in assay [2]) was > 7.00 throughout. Besides, the inhibition at 1 µM on LCK was 17%.

For orientation: pIC50 means the negative decadic logarithm of the IC50, by convention in mol/L.
